Measurements: patent US20210205348A1, “Methods for the Treatment of Bladder Cancer” (Eisai R&D Management Co., Ltd., priority 2018, published 2021)

Tests used:
IFNβ = experiment: Ex vivo human PBMC stimulation assay, IFNβ protein; assay type: cell-based; settings: 24 hours, average of five donors
Method: Human blood from 5 healthy donors was collected using 10.0 mL BD Vacutainer Sodium heparin tubes (cat #367874). Peripheral blood mononuclear cell (PBMC) isolation was done using SIGMA ACCUSPIN 50 ml Tubes (cat #A2055) and sigma ACCUSPIN System-HISTOPAQUE-1077 (cat #A7054) using protocol provided by manufacturer. […] PBMC were counted and finally suspended @ 1x10e6/ml in RPMI (corning cat #10-041-CV supplemented with 10% fetal bovine serum (FBS) (Gibco cat #20140.79). 1ml of cell (1×10e6) were transferred into Falcon 5 mL Round Bottom Polypropylene Test Tube (cat #352063) and stimulated with different concentrations (0, 0.1, 1, 10 uM) for 24 hours in 5% CO2 incubator at 37° C.
After 24 hours of incubation the tubes were centrifuged at 1400 rpm for 5 minutes and supernatants were harvested. Supernatant were stored in −80° C. for subsequent IFNβ measurement. IFNβ measurement was done using Human IFN-β Base Kit (Meso Scale Diagnostics cat #K151ADA) and protocol provided by manufacturer was used. IFN-beta estimation was done by reading assay plate at MESO SECTOR Imager 2400 and using MSD Discovery Workbench 4.0 program. After 24 hours IFNβ protein was analyzed.
Results shown in Table 3 reflect an average of measurements conducted using five different donors.

MBT-2 tumor cells = experiment: MBT-2 murine bladder cancer orthotopic model; assay type: in vivo, mouse
Method: The protocol with HCl pre-treatment procedure described by Lee, et al. was applied to establish the model. In brief, 30 μL 0.1 N HCl solution was injected into mouse bladder through a catheter and HCl solution was allowed to remain in the bladder for 15 seconds. Then the HCl solution was replaced by 30 μL 0.1N NaOH solution followed by one flushing step with 1 X PBS (pH7.4). The follow-up tumor cell implantation procedure was modified from the original literature. In brief, after a flushing step, MBT-2 tumor cells (2 ×10^6 cells in 50 μL RPMI1640 medium) were instilled into the bladder and allowed to remain for 45 minutes. At the end of this 45 minute period, the bladder was drained.
On each day of dosing BCG was diluted in NaCl 0.9% (Lavoisier, France) to reach the final concentration of 16.875 mg/mL for dosing. Any leftover dosing solution was discarded after use. For anti-PD-1 antibody, 1 x PBS (Lonza, France) was used to dilute the stock solution to prepare 1 mg/mL working solution for dosing.
From days 20-21, tumor growth in bladder was quantitated by MRI (Magnetic resonance imaging) and tumor sizes of all mice were graphed as shown in FIG. 7.

GL261 mouse glioma cells = experiment: GL261 brain orthotopic model; assay type: in vivo; settings: 10 mg/kg intratumorally, a single time
Excerpt: GL261 is a murine glioma cell line.

[1] = system: hepatocytes of Beagle dog; experiment: Hepatocyte incubation, identification of potential metabolites; assay type: in vitro ADME; settings: 10 μmol/L
Method: (§1) Prior to incubations, the cryopreserved hepatocytes were thawed in a water bath at 37° C. One tube of cryopreserved hepatocytes was added to each 50-mL conical tube of cryopreserved hepatocyte recovery medium (UCRM) obtained from In Vitro ADMET Laboratories (Columbia, Md.). The cells were spun in a Beckman centrifuge (Brea, Calif.) with a GH 3.8 rotor at 740 rpm for 10 minutes at […]. The supernatant was removed and the cells were re-suspended in plating media for counting. After the cells were re-suspended in plating media, 20 μL of the re-suspension was transferred and mixed with 20 μL of AOPI staining solution. The solution was gently mixed and cells were counted using a Cellometer (Nexcelom, Lawrence, Mass.). After counting, the cells were then re-suspended at 1 or 2 million viable cells/mL in Williams' E media containing 2 mmol/L L-glutamine (pH 7.4).
(§2) The hepatocyte suspension (50 μL/well) was added into a 48-well plate. […] The plate was placed into a tissue culture incubator (5% CO2/95% air humidified atmosphere and 37° C.), and the reactions were terminated with 200 μL of stop solution consisting of 100% methanol/acetonitrile (1/1, v/v) with 2010 ng/mL furosemide and 0.2 μmol/L (R)-propranolol at 5, 30, 60, 120, 180 and 240 minutes. The mixture was centrifuged and filtered, and the supernatant was collected for analysis. The final concentrations of cryopreserved hepatocytes were 1×10^6 cells/mL.
(§3) The LC-MS/MS system was composed of a Shimadzu HPLC and an AB-SCIEX TripleTOF 5600 hybrid quadrupole and TOF mass spectrometer (Framingham, Mass.). The Shimadzu HPLC (Kyoto, Japan), consisted of a communications bus module (CBM-20A), an auto-sampler (SIL-30AC) with an attached rack changer (Rack Changer II) two pumps (LC-30AD) and a column oven (CTO-30A). The mass spectrometer was calibrated using the AB-SCIEX APCI both Negative and Positive Calibration Solutions (Framingham, Mass.). The samples obtained from incubations with hepatocytes were analyzed under both negative and positive scan modes. The basic analytical method and instrumental conditions are summarized below. Modification of the spectrometer settings was dependent on the necessity of the analyte.
(§4) Mass spectrometry data were acquired using AB-Sciex Analyst TF (Version 1.5.1; Framingham, Mass.). Chromatograms and spectra were obtained using AB-Sciex PeakView (Version 2.2.0.1; Framingham, Mass.). The comparison of relative peak areas for extracted ion chromatograms were based on ±0.0002 Da of the expected exact mass-to-charge ratio (m/z) for each analyte of interest.

[2] = system: hepatocytes of CD-1 mouse; experiment: as above; assay type: in vitro ADME; settings: 10 μmol/L
Method: as §1, §2, §3, §4

[3] = system: hepatocytes of Cynomoigus monkey; experiment: as above; assay type: in vitro ADME; settings: 10 μmol/L
Method: as §1, §2, §3, §4

[4] = system: hepatocytes of Sprague Dawley rat; experiment: as above; assay type: in vitro ADME; settings: 10 μmol/L
Method: as §1, §2, §3, §4

hepatocytes of human = experiment: as above; assay type: in vitro ADME; settings: 10 μmol/L
Method: as §1, §2, §3, §4

CT26 tumor cells [5] = experiment: CT26 liver metastatic model; settings: 10 mg/kg intratumorally, a single time
CT26 tumor cells [6] = experiment: CT26 dual tumor model (mouse colon cancer model)
Method: For study B, treatment was started 8 days (0.6 mg/kg, and 10 mg/kg) after the tumor implantation, when the average tumors reached approximately 120 mm^3.
All the mice in the study have two subcutaneous CT26 tumors. The “treated tumor” indicates the tumor with compound direct administration, while “untreated tumor” indicates the tumor without direct compound administration. Tumor volume was followed throughout the experiment. Tumor volume is measured two times weekly after the start of treatment. Tumor burden is calculated from caliper measurements by the formula for the volume of a prolate ellipsoid (L×W^2)/2 where L and W are the respective orthogonal length and width measurements (mm),

O=P1(S)OCC2OC3C(F)C2OP(=O)(S)OCC2OC(C(F)C2O1)n1cnc2c(ncnc21)NCC=CCNc1ncnc2c1ncn23 (centres unmarked) [Compound 1a]
IFNβ (IFNβ; 0.1 μM): 21.3 ± 17.8 pg/mL
IFNβ (IFNβ; 1 μM): 227.5 ± 62.4 pg/mL
IFNβ (IFNβ; 10 μM): 540.2 ± 215.0 pg/mL
tumor volumes quantified by MRI (MBT-2 tumor cells; days 20-21, 100, 200, 400 μg/mouse IVe Q7Dx3, also 400 μg/mouse with PD1 antibody (Groups 4 to 7), vs vehicle, BCG and PD1 antibody groups): much smaller tumor volumes
survival relative to vehicle treated animals (MBT-2 tumor cells; intravesicular, Q7Dx3 (FIG. 8)): statistically significant survival benefit
activity at local sc tumors (GL261 mouse glioma cells): potent activity
curative systemic activity (treated animals) (GL261 mouse glioma cells; into the sc tumor): 5 of 8
formation of major metabolites ([1]; dog hepatocytes, LC-MS/MS): No apparent metabolite
stability in incubations with hepatocytes ([1]; dog, up to 240 minutes): stable
formation of major metabolites ([2]; mouse hepatocytes, LC-MS/MS): No apparent metabolite
stability in incubations with hepatocytes ([2]; mouse, up to 240 minutes): stable
formation of major metabolites ([3]; monkey hepatocytes, LC-MS/MS): No apparent metabolite
stability in incubations with hepatocytes ([3]; monkey, up to 240 minutes): stable
formation of major metabolites ([4]; rat hepatocytes, LC-MS/MS): No apparent metabolite
stability in incubations with hepatocytes ([4]; rat, up to 240 minutes): stable
formation of major metabolites (hepatocytes of human; human hepatocytes, LC-MS/MS): No apparent metabolite
stability in incubations with hepatocytes (hepatocytes of human; human, up to 240 minutes): stable
activity towards the local sc tumors (CT26 tumor cells [5]): potent activity
curative systemic activity (treated animals) (CT26 tumor cells [5]; into the sc tumor): 9 of 10
cure rate, treated tumors (CT26 tumor cells [6]; 0.6 mg/kg I.T. single dose): 20%
curative effects, untreated tumors (CT26 tumor cells [6]; 10 mg/kg I.T. single dose): 80%
animals cured, treated tumors (CT26 tumor cells [6]; 10 mg/kg I.T. single dose, end of study): 100%
effect on untreated tumors (CT26 tumor cells [6]; all the lower doses (0.6 to 5 mg/kg) I.T. single dose): tumor growth inhibition activity
